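Results reflect a 48-hour exposure of cells in 96-well plates to compound at five concentrations. GI50: concentration for 50% inhibition of growth.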 Calls of active or inactive are those of the source. No stated cut-off is given here; in the data, active = GI50 up to about 1.1 µM and inactive = higher.
Key:
Test in all cases: inhibition of tumour cell growth, NCI panel, 48 h
786-0 = test system: 786-0
A498 = test system: A498
A549 = test system: A549
ACHN = test system: ACHN
CAKI-1 = test system: CAKI-1
CCRF-CEM = test system: CCRF-CEM
COLO 205 = test system: COLO 205
DLD-1 = test system: DLD-1
DMS-114 = test system: DMS-114
DMS-273 = test system: DMS-273
EKVX = test system: EKVX
HCC 2998 = test system: HCC 2998
HCT-116 = test system: HCT-116
HCT-15 = test system: HCT-15
HOP-18 = test system: HOP-18
HOP-62 = test system: HOP-62
HT-29 = test system: HT-29
IGROV-1 = test system: IGROV-1
K562 = test system: K562
KM-20L2 = test system: KM-20L2
KM12 = test system: KM12
LOX IMVI = test system: LOX IMVI
LXFL 529 = test system: LXFL 529
M14 = test system: M14
M19-MEL = test system: M19-MEL
MOLT-4 = test system: MOLT-4
Malme-3M = test system: Malme-3M
NCI-H226 = test system: NCI-H226
NCI-H23 = test system: NCI-H23
NCI-H460 = test system: NCI-H460
NCI-H522 = test system: NCI-H522
OVCAR-3 = test system: OVCAR-3
OVCAR-4 = test system: OVCAR-4
OVCAR-5 = test system: OVCAR-5
OVCAR-8 = test system: OVCAR-8
RPMI-8226 = test system: RPMI-8226
RXF 393 = test system: RXF 393
SF-268 = test system: SF-268
SF-295 = test system: SF-295
SF-539 = test system: SF-539
SK-MEL-28 = test system: SK-MEL-28
SK-MEL-2 = test system: SK-MEL-2
SK-MEL-5 = test system: SK-MEL-5
SK-OV-3 = test system: SK-OV-3
SN12C = test system: SN12C
SNB-19 = test system: SNB-19
SNB-75 = test system: SNB-75
SNB-78 = test system: SNB-78
SW-620 = test system: SW-620
TK-10 = test system: TK-10
U-251 = test system: U-251
UACC-257 = test system: UACC-257
UACC-62 = test system: UACC-62
UO-31 = test system: UO-31
HL-60 = test system: HL-60

Cc1ccc(NC(=O)CSc2nnc(Cc3ccccc3)o2)cc1
GI50 (786-0): > 100 µM (inactive) | GI50 (A498): > 100 µM (inactive) | GI50 (A549): > 100 µM (inactive) | GI50 (ACHN): > 100 µM (inactive) | GI50 (CAKI-1): > 100 µM (inactive) | GI50 (CCRF-CEM): > 100 µM (inactive) | GI50 (COLO 205): > 100 µM (inactive) | GI50 (DLD-1): > 100 µM (inactive) | GI50 (DMS-114): 53.2 µM (inactive) | GI50 (DMS-273): > 100 µM (inactive) | GI50 (EKVX): > 100 µM (inactive) | GI50 (HCC 2998): > 100 µM (inactive) | GI50 (HCT-116): > 100 µM (inactive) | GI50 (HCT-15): > 100 µM | GI50 (HOP-18): > 100 µM (inactive) | GI50 (HOP-62): > 100 µM (inactive) | GI50 (HT-29): > 100 µM (inactive) | GI50 (IGROV-1): > 100 µM (inactive) | GI50 (K562): > 100 µM (inactive) | GI50 (KM-20L2): > 100 µM (inactive) | GI50 (KM12): > 100 µM (inactive) | GI50 (LOX IMVI): > 100 µM (inactive) | GI50 (LXFL 529): > 100 µM (inactive) | GI50 (M14): > 100 µM (inactive) | GI50 (M19-MEL): > 100 µM (inactive) | GI50 (MOLT-4): > 100 µM (inactive) | GI50 (Malme-3M): > 100 µM (inactive) | GI50 (NCI-H226): > 100 µM (inactive) | GI50 (NCI-H23): > 100 µM (inactive) | GI50 (NCI-H460): > 100 µM (inactive) | GI50 (NCI-H522): > 100 µM (inactive) | GI50 (OVCAR-3): > 100 µM (inactive) | GI50 (OVCAR-4): > 100 µM (inactive) | GI50 (OVCAR-5): > 100 µM (inactive) | GI50 (OVCAR-8): 97.9 µM (inactive) | GI50 (RPMI-8226): > 100 µM (inactive) | GI50 (RXF 393): > 100 µM (inactive) | GI50 (SF-268): > 100 µM (inactive) | GI50 (SF-295): > 100 µM (inactive) | GI50 (SF-539): > 100 µM (inactive) | GI50 (SK-MEL-28): > 100 µM (inactive) | GI50 (SK-MEL-2): > 100 µM (inactive) | GI50 (SK-MEL-5): > 100 µM (inactive) | GI50 (SK-OV-3): > 100 µM (inactive) | GI50 (SN12C): > 100 µM (inactive) | GI50 (SNB-19): > 100 µM (inactive) | GI50 (SNB-75): > 100 µM (inactive) | GI50 (SNB-78): > 100 µM (inactive) | GI50 (SW-620): > 100 µM (inactive) | GI50 (TK-10): > 100 µM (inactive) | GI50 (U-251): > 100 µM (inactive) | GI50 (UACC-257): > 100 µM (inactive) | GI50 (UACC-62): > 100 µM (inactive) | GI50 (UO-31): > 100 µM (inactive)

CCO/C([O-])=C(\C(=O)c1ccccc1)[n+]1c(C)sc2ccccc21
GI50 (786-0): > 100 µM (inactive) | GI50 (A498): > 100 µM (inactive) | GI50 (A549): 45.5 µM (inactive) | GI50 (CAKI-1): > 100 µM (inactive) | GI50 (CCRF-CEM): > 100 µM (inactive) | GI50 (COLO 205): 83.6 µM (inactive) | GI50 (DLD-1): > 100 µM (inactive) | GI50 (DMS-114): 32.3 µM (inactive) | GI50 (DMS-273): > 100 µM (inactive) | GI50 (EKVX): > 100 µM (inactive) | GI50 (HCC 2998): > 100 µM (inactive) | GI50 (HCT-116): > 100 µM (inactive) | GI50 (HCT-15): 21.9 µM | GI50 (HL-60): 53.2 µM (inactive) | GI50 (HOP-18): 20 µM (inactive) | GI50 (HOP-62): > 100 µM (inactive) | GI50 (HT-29): > 100 µM (inactive) | GI50 (IGROV-1): > 100 µM (inactive) | GI50 (K562): 81.3 µM (inactive) | GI50 (KM-20L2): > 100 µM (inactive) | GI50 (KM12): > 100 µM (inactive) | GI50 (LOX IMVI): 49.2 µM (inactive) | GI50 (LXFL 529): 54.1 µM (inactive) | GI50 (M14): > 100 µM (inactive) | GI50 (M19-MEL): 18.4 µM (inactive) | GI50 (MOLT-4): > 100 µM (inactive) | GI50 (Malme-3M): 96.6 µM (inactive) | GI50 (NCI-H226): > 100 µM (inactive) | GI50 (NCI-H23): 61.8 µM (inactive) | GI50 (NCI-H460): 59.3 µM (inactive) | GI50 (NCI-H522): 81.3 µM (inactive) | GI50 (OVCAR-3): > 100 µM (inactive) | GI50 (OVCAR-4): 96.6 µM (inactive) | GI50 (OVCAR-5): > 100 µM (inactive) | GI50 (OVCAR-8): > 100 µM (inactive) | GI50 (RPMI-8226): 59 µM (inactive) | GI50 (RXF 393): > 100 µM (inactive) | GI50 (SF-268): > 100 µM (inactive) | GI50 (SF-295): 64.4 µM (inactive) | GI50 (SF-539): 93.3 µM (inactive) | GI50 (SK-MEL-28): > 100 µM (inactive) | GI50 (SK-MEL-2): 58.3 µM (inactive) | GI50 (SK-MEL-5): 16.7 µM (inactive) | GI50 (SK-OV-3): > 100 µM (inactive) | GI50 (SNB-19): > 100 µM (inactive) | GI50 (SNB-75): > 100 µM (inactive) | GI50 (SNB-78): > 100 µM (inactive) | GI50 (SW-620): > 100 µM (inactive) | GI50 (TK-10): > 100 µM (inactive) | GI50 (U-251): > 100 µM (inactive) | GI50 (UACC-257): 13.5 µM (inactive) | GI50 (UACC-62): 52.8 µM (inactive) | GI50 (UO-31): 50.6 µM (inactive)
